Results on eleven molecules are retold here after patent publication US20250320206A1, “STAT6 DEGRADERS” (Gilead Sciences, Inc., priority 2024, published 2025).

One test addresses T1, STAT6 (Homo sapiens, UniProt P42226).
T1 construct: These cells express endogenous STAT6; host or cells: HeLa LgBiT clone 4.14
T1 sequence (P42226 1-847): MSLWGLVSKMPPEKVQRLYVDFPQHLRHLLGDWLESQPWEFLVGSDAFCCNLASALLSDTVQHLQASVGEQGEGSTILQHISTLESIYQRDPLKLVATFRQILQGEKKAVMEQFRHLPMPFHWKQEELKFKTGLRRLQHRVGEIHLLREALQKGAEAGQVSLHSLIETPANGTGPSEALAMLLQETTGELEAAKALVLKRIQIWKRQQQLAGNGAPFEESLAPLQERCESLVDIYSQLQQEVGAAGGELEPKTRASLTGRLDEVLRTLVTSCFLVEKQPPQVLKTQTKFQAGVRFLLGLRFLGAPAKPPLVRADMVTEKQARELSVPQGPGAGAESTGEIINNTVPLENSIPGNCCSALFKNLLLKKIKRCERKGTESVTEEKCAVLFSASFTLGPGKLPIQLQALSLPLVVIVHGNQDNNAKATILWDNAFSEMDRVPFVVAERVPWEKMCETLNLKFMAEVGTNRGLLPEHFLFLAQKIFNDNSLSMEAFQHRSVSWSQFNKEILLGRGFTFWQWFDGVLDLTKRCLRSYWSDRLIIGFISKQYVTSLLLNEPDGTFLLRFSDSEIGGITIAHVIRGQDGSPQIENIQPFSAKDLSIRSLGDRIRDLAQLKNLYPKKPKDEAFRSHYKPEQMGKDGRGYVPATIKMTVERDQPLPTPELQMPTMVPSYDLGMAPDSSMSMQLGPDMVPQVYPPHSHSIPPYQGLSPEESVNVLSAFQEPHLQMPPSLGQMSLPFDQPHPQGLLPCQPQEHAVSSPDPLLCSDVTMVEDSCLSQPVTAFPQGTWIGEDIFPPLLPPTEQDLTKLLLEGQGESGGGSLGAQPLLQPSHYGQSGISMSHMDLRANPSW
In words: Stat6 Degrader Assay (HiBiT based, HeLa LgBiT clone 4.14). The test is classed as cell-based. To be noted: HeLa LgBiT clone 4.14 HiBiT-STAT6, 4-24 h incubation; for DC50: values given for compounds with >80% Emax, geometric mean, read-out: STAT6 degradation DC50. The gist of the method: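 HeLa LgBiT clone 4.14 cells with CRISPR HiBiT-tagged endogenous STAT6, 5000 cells/well, compound dosed then incubated 4-24 h at 37° C, 5% CO2. Nano-Glo substrate added, 0.5 h, luminescence read as non-degraded STAT6. Terfenadine 50 μM (cell kill) defines 100% degradation.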
For orientation: The HiBiT peptide binds its large partner to form an active luciferase.

In test [1] the test system is Eotaxin-3 release in human whole blood stimulated with IL-4. In words: Human Whole Blood Eotaxin-3 Assay (IL-4 stimulated eotaxin-3 release). The note with it: IL-4 stimulation, 48 h, values given for compounds with >80% Emax, geometric mean. The test is classed as cell-based. The gist of the method: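 Lithium-heparin human whole blood preincubated 2 h at 37° C with 4-fold serially diluted compounds (0.5% DMSO), then stimulated with recombinant human IL-4 ([…]) for 48 h. Eotaxin-3 (CCL26) in supernatant quantified by MSD immunoassay.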

In the case of `CNc1ccn(-c2ccnc3c2cc([C@H](C)N2CC=C(c4c(C)cc(C(=O)N5CCn6nc(CN7CCC(c8ccc9c(c8)n(C8CC8)c(=O)n9C8CCC(=O)NC8=O)CC7)cc6C5)cc4F)CC2)n3C)c(=O)c1` (stereo partly drawn) [Example 3u254, 3-(3-cyclopropyl-5-(1-((5-(3-fluoro-5-methyl-4-(1-((S)-1-(1-methyl-4-(4-(methylamino)-2-oxopyridin-1 (2H)-yl)-1H-pyrrolo[2,3-b]pyridin-2-yl)ethyl)-1,2,3,6-tetrahydropyridin-4-yl)benzoyl)-4,5,6,7-tetrahydropyrazolo[1,5-a]pyrazin-2-yl)methyl)piperidin-4-yl)-2-oxo-2,3-dihydro-1H-benzo[d]imidazol-1-yl)piperidine-2,6-dione], the DC50 (as a rule, the midpoint of the concentration-degradation curve) at STAT6 was determined as 0.4 nM. Also, in test [1], it took 0.2 nM to reach a half-maximal effect (EC50).

Take `CNc1ccn(-c2ccnc3c2cc([C@H](C)N2CC=C(c4c(C)cc(C(=O)N5CCC(CN6CCN(c7cc8c(cc7F)n(C7CCC(=O)NC7=O)c(=O)n8C)CC6)CC5)cc4F)CC2)n3C)c(=O)n1` (stereo partly drawn) [Example 3u256, 3-(6-fluoro-5-(4-((1-(3-fluoro-5-methyl-4-(1-((S)-1-(1-methyl-4-(4-(methylamino)-2-oxopyrimidin-1 (2H)-yl)-1H-pyrrolo[2,3-b]pyridin-2-yl)ethyl)-1,2,3,6-tetrahydropyridin-4-yl)benzoyl)piperidin-4-yl)methyl)piperazin-1-yl)-3-methyl-2-oxo-2,3-dihydro-1H-benzo[d]imidazol-1-yl)piperidine-2,6-dione]: the DC50 on STAT6 worked out at 2.5 nM. A half-maximal response in test [1] (EC50) required 0.8 nM.

Regarding `CNc1cc(=O)n(-c2ccnc3c2cc([C@H](C)N2CC=C(c4c(C)cc(C(=O)N5CCC(CN6CCN(Cc7ccc8c(c7)C7(CCC7)C(=O)N8C7CCC(=O)NC7=O)CC6)CC5)cc4F)CC2)n3C)cc1F` (stereo partly drawn) [Example 3u258, 3-(5′-((4-((1-(3-fluoro-4-(1-((S)-1-(4-(5-fluoro-4-(methylamino)-2-oxopyridin-1 (2H)-yl)-1-methyl-1H-pyrrolo[2,3-b]pyridin-2-yl)ethyl)-1,2,3,6-tetrahydropyridin-4-yl)-5-methylbenzoyl)piperidin-4-yl)methyl)piperazin-1-yl)methyl)-2′-oxospiro[cyclobutane-1,3′-indolin]-1′-yl)piperidine-2,6-dione], the 50% degradation concentration (DC50) on STAT6 was determined as 3.1 nM. Further, the half-maximal effective concentration (EC50) (commonly the concentration needed to bring the measured effect to its halfway point) in test [1] turned out to be 7 nM.

With `CNc1cc(=O)n(-c2ccnc3c2cc([C@H](C)N2CC=C(c4c(C)cc(C(=O)N5CCC(CC6CCN(c7ccc8c(c7)C7(CC7)C(=O)N8C7CCC(=O)NC7=O)CC6)CC5)cc4F)CC2)n3C)cc1F` (stereo partly drawn) [Example 3u284, 3-(5′-(4-((1-(3-fluoro-4-(1-((S)-1-(4-(5-fluoro-4-(methylamino)-2-oxopyridin-1 (2H)-yl)-1-methyl-1H-pyrrolo[2,3-b]pyridin-2-yl)ethyl)-1,2,3,6-tetrahydropyridin-4-yl)-5-methylbenzoyl)piperidin-4-yl)methyl)piperidin-1-yl)-2′-oxospiro[cyclopropane-1,3′-indolin]-1′-yl)piperidine-2,6-dione], the DC50 at STAT6 stood at 22.6 nM. In test [1], this molecule gave a concentration for a half-maximal effect (EC50) of 24 nM.

As to `CNc1ccn(-c2ccnc3c2cc([C@H](C)N2CC=C(c4c(C)cc(C(=O)N5CCC(CN6CCN(c7ccc8c(c7)n(C7CC7)c(=O)n8C7CCC(=O)NC7=O)CC6)CC5)cc4F)CC2)n3C)c(=O)c1` (stereo partly drawn) [Example 3u287, 3-(3-cyclopropyl-5-(4-((1-(3-fluoro-5-methyl-4-(1-((S)-1-(1-methyl-4-(4-(methyl-amino)-2-oxopyridin-1 (2H)-yl)-1H-pyrrolo[2,3-b]pyridin-2-yl)ethyl)-1,2,3,6-tetrahydropyridin-4-yl)benzoyl)piperidin-4-yl)methyl)piperazin-1-yl)-2-oxo-2,3-dihydro-1H-benzo[d]imidazol-1-yl)-piperidine-2,6-dione], at STAT6, the 50% degradation concentration (DC50) amounted to 2.7 nM. In test [1], the EC50 is 2.9 nM.

For `CNc1cc(=O)n(-c2ccnc3c2cc([C@H](C)N2CC=C(c4c(C)cc(C(=O)N5CCC(CN6CCN(c7ccc8c(c7)C7(CC7)C(=O)N8C7CCC(=O)NC7=O)C[C@H]6C)CC5)cc4F)CC2)n3C)cc1F` (stereo partly drawn) [Example 3u295, 3-(5′-((R)-4-((1-(3-fluoro-4-(1-((S)-1-(4-(5-fluoro-4-(methylamino)-2-oxopyridin-1 (2H)-yl)-1-methyl-1H-pyrrolo[2,3-b]pyridin-2-yl)ethyl)-1,2,3,6-tetrahydropyridin-4-yl)-5-methylbenzoyl)piperidin-4-yl)methyl)-3-methylpiperazin-1-yl)-2′-oxospiro[cyclopropane-1,3′-indolin]-1′-yl)piperidine-2,6-dione], at STAT6, the 50% degradation concentration (DC50) came to 4.5 nM. The molecule further displayed an EC50 in test [1] of 18.9 nM.

As to `CNc1cc(=O)n(-c2ccnc3c2cc([C@H](C)N2CC=C(c4c(C)cc(C(=O)N5CCC(CN6CCN(c7ccc8c(c7)n(C)c(=O)n8C7CCC(=O)NC7=O)CC6)CC5)cc4F)CC2)n3C)cc1F` (stereo partly drawn) [Example 3u298, 3-(5-(4-((1-(3-fluoro-4-(1-((S)-1-(4-(5-fluoro-4-(methylamino)-2-oxopyridin-1 (2H)-yl)-1-methyl-1H-pyrrolo[2,3-b]pyridin-2-yl)ethyl)-1,2,3,6-tetrahydropyridin-4-yl)-5-methylbenzoyl)-piperidin-4-yl)methyl)piperazin-1-yl)-3-methyl-2-oxo-2,3-dihydro-1H-benzo[d]imidazol-1-yl)-piperidine-2,6-dione], the 50% degradation concentration (DC50) on STAT6 is 1.8 nM. Further, the half-maximal effective concentration (EC50) in test [1] was 2.6 nM.

For `CNc1ccn(-c2ccnc3c2cc([C@H](C)N2CC=C(c4c(C)cc(C(=O)N5CCC(CN6CCN(c7ccc8c(c7)n(C)c(=O)n8C7CCC(=O)NC7=O)CC6)CC5)cc4F)CC2)n3C)c(=O)c1` (stereo partly drawn) [Example 3u299, 3-(5-(4-((1-(3-fluoro-5-methyl-4-(1-((S)-1-(1-methyl-4-(4-(methylamino)-2-oxopyridin-1 (2H)-yl)-1H-pyrrolo[2,3-b]pyridin-2-yl)ethyl)-1,2,3,6-tetrahydropyridin-4-yl)benzoyl)piperidin-4-yl)methyl)piperazin-1-yl)-3-methyl-2-oxo-2,3-dihydro-1H-benzo[d]imidazol-1-yl)piperidine-2,6-dione], the DC50 on STAT6 stood at 0.9 nM. Besides, in test [1], the EC50 amounted to 0.5 nM.

For the molecule `CNc1cc(=O)n(-c2ccnc3c2cc([C@H](C)N2CC=C(c4c(F)cc(C(=O)N5CCC(CN6CCN(c7ccc8c(c7)C7(CC7)C(=O)N8C7CCC(=O)NC7=O)CC6)CC5)cc4F)CC2)n3C)cc1F` (stereo partly drawn) [Example 3u300, 3-(5′-(4-((1-(3,5-difluoro-4-(1-((S)-1-(4-(5-fluoro-4-(methylamino)-2-oxopyridin-1 (2H)-yl)-1-methyl-1H-pyrrolo[2,3-b]pyridin-2-yl)ethyl)-1,2,3,6-tetrahydropyridin-4-yl)benzoyl)-piperidin-4-yl)methyl)piperazin-1-yl)-2′-oxospiro[cyclopropane-1,3′-indolin]-1′-yl)piperidine-2,6-dione], at STAT6, the DC50 came to 13 nM. This molecule gave an EC50 in test [1] of 24.1 nM.

For `CNc1cc(=O)n(-c2ccnc3c2cc(CN2CCC(c4c(F)cc(C(=O)N5CCC(CN6CCN(c7ccc8c(c7)C7(CC7)C(=O)N8C7CCC(=O)NC7=O)CC6)CC5)cc4F)CC2)n3C)cc1F` (stereo not shown) [Example 3u301, 3-(5′-(4-((1-(3,5-difluoro-4-(1-((4-(5-fluoro-4-(methylamino)-2-oxopyridin-1 (2H)-yl)-1-methyl-1H-pyrrolo[2,3-b]pyridin-2-yl)methyl)piperidin-4-yl)benzoyl)piperidin-4-yl)methyl)-piperazin-1-yl)-2′-oxospiro[cyclopropane-1,3′-indolin]-1′-yl)piperidine-2,6-dione], the maximal response (Emax) – broadly, the size of the effect at its maximum, as opposed to the concentration needed – on STAT6 (read-out: STAT6 degradation Emax) lay in the range of 20 to 30%. In addition, in test [1], the response was half-maximal at 90.5 nM (EC50).

In the case of `CNc1cc(=O)n(-c2ccnc3c2cc([C@H](C)N2CC=C(c4c(C)cc(C(=O)N5CCC(CN6CCN(c7ccc8c(c7)C7(CC7)C(=O)N8C7CCC(=O)NC7=O)CC6)CC5)cc4F)CC2)n3C)cc1F` (stereo partly drawn) [Example 3u302, 3-(5′-(4-((1-(3-fluoro-4-(1-((S)-1-(4-(5-fluoro-4-(methylamino)-2-oxopyridin-1 (2H)-yl)-1-methyl-1H-pyrrolo[2,3-b]pyridin-2-yl)ethyl)-1,2,3,6-tetrahydropyridin-4-yl)-5-methylbenzoyl)piperidin-4-yl)methyl)piperazin-1-yl)-2′-oxospiro[cyclopropane-1,3′-indolin]-1′-yl)piperidine-2,6-dione], at STAT6, the DC50 is 4.9 nM. This molecule gave an EC50 in test [1] of 29.2 nM.
